Source: PubChem BioAssay (NCI)
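Each compound was tested at five concentrations against cells in 96-well plates for 48 hours. At the GI50, growth is halved. At the TGI there is no net growth.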

Tests used:
Assay in all cases: growth of human tumour cells (NCI), 48 h
SNB-75 CNS = test system: SNB-75 CNS
LOX IMVI melanoma = test system: LOX IMVI melanoma
COLO 205 colon = test system: COLO 205 colon
CAKI-1 renal = test system: CAKI-1 renal
BT-549 breast = test system: BT-549 breast
SF-295 CNS = test system: SF-295 CNS
786-0 renal = test system: 786-0 renal
SK-OV-3 ovarian = test system: SK-OV-3 ovarian
HS 578T breast = test system: HS 578T breast
SF-539 CNS = test system: SF-539 CNS

| Compound | GI50 (SNB-75 CNS) | TGI (SNB-75 CNS) | GI50 (LOX IMVI melanoma) | TGI (LOX IMVI melanoma) | GI50 (COLO 205 colon) | TGI (COLO 205 colon) | GI50 (CAKI-1 renal) | TGI (CAKI-1 renal) | GI50 (BT-549 breast) | TGI (BT-549 breast) | GI50 (SF-295 CNS) | TGI (SF-295 CNS) | GI50 (786-0 renal) | TGI (786-0 renal) | GI50 (SK-OV-3 ovarian) | TGI (SK-OV-3 ovarian) | GI50 (HS 578T breast) | TGI (HS 578T breast) | GI50 (SF-539 CNS) | TGI (SF-539 CNS) |
| --- | --- | --- | --- | --- | --- | --- | --- | --- | --- | --- | --- | --- | --- | --- | --- | --- | --- | --- | --- | --- |
| CCCCCN(CCCCC)CC(O)c1cc(Cl)ccc1OC (centres undefined) | 0.197 µM | 5.83 µM | 5.23 µM | 18.4 µM | 5.11 µM | 18.6 µM | 2.81 µM | 16.6 µM | 15.9 µM | 38.3 µM | 1.38 µM | 12.6 µM | 13 µM | 27.4 µM | 12.8 µM | 29.5 µM | 12.9 µM | 33.6 µM | 10.8 µM | 24.3 µM |
| CC(C)c1nc(N(C)S(C)(=O)=O)nc(-c2ccc(F)cc2)c1/C=C/[C@@H](O)C[C@@H](O)CC(=O)O | 18.5 µM | > 77.5 µM | 21.2 µM | > 100 µM | > 100 µM | > 100 µM | 67.7 µM | > 100 µM | > 100 µM | > 100 µM | 32.7 µM | > 100 µM | > 100 µM | > 100 µM | > 100 µM | > 100 µM | 51.9 µM | > 100 µM | > 100 µM | > 100 µM |
| O=S1(=O)N(Cc2ccccc2)[C@@H](Cc2ccccc2)[C@H](O)[C@H](O)[C@H](Cc2ccccc2)N1Cc1ccccc1 | 2.31 µM | 7.28 µM | 3.28 µM | 7.09 µM | 4.26 µM | 10.4 µM | 3.65 µM | 7.33 µM | 2.65 µM | 5.53 µM | 2.62 µM | 5.68 µM | 3.24 µM | 6.86 µM | 4.15 µM | 10.6 µM | 3.27 µM | 8.38 µM | 3.37 µM | 6.76 µM |
| CN(C)CCNC(=O)c1ccc(-c2nc3ccc4[nH]ncc4c3c3c2C2CCC3C2)cc1 (centres undefined) | 0.341 µM | 1.14 µM | 1.19 µM | 2.79 µM | 0.569 µM | 4.19 µM | 0.93 µM | 5.25 µM | 1.25 µM | 2.93 µM | 2.01 µM | 5.39 µM | 0.882 µM | 4.92 µM | 0.348 µM | 4.28 µM | 0.494 µM | 2.62 µM | 0.702 µM | 2.39 µM |
| CC[C@@]1(OC(=O)CN)C(=O)OCc2c1cc1n(c2=O)Cc2c-1nc1cc3c(cc1c2CCl)OCO3 | < 0.0244 µM |  | < 0.01 µM | 5.03 µM | 0.761 µM | 3.1 µM | < 0.01 µM | 1.98 µM | 0.0918 µM | 2.54 µM | < 0.01 µM | 11.2 µM | 0.0102 µM | > 33.8 µM | 0.375 µM | > 31.6 µM | 0.762 µM | 5.5 µM | < 0.01 µM | < 0.0318 µM |
| Cc1cc(Cl)ccc1OCC(=O)Nc1nc(N)nc(N)n1 |  | > 100 µM |  | > 100 µM |  | > 100 µM |  | > 100 µM |  | > 100 µM |  | > 100 µM |  | > 100 µM |  | > 100 µM |  | > 100 µM |  | > 100 µM |
